Laboratory results published in US20200131180A1, “POSITIVE ALLOSTERIC MODULATORS OF THE MUSCARINIC ACETYLCHOLINE RECEPTOR M1” (Vanderbilt University, priority 2018, published 2020).

Molecular target: T1, human mAChR M1 (Homo sapiens, UniProt P11229)
T1 sequence (P11229 1-460): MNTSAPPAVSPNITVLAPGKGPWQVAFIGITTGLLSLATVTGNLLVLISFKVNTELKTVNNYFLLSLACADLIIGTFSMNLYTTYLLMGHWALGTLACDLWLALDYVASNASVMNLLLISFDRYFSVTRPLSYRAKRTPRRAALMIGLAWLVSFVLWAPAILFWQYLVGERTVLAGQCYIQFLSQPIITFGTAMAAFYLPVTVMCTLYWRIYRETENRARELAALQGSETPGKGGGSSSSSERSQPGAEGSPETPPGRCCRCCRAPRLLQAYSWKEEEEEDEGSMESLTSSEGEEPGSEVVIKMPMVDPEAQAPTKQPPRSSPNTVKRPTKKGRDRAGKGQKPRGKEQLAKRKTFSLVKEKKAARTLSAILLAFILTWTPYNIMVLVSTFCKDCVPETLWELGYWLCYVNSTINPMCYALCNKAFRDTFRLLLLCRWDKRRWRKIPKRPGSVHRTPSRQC
Test: mAChR M1 cell-based functional assay (calcium mobilization, PAM activity)
Conditions: CHO-K1 cells expressing hM1, calcium flux (Fluo-4); for EC50: concentration-dependent increase in the EC20 acetylcholine response; for Emax: potentiation of EC20 acetylcholine response
Excerpt: Chinese hamster ovary (CHO-K1) cells stably expressing rat (r)M1 were purchased from the American Type Culture Collection and cultured according to their indicated protocol. CHO cells stably expressing human (h)M2, hM3, and hM5 were described previously (Levey, et al., 1991); hM1 and hM4 cDNAs were purchased from Missouri S&T cDNA Resource; rM4 cDNA was provided by T. I. Bonner (National Institutes of Health, Bethesda, Md.). rM2 and rM3 were cloned from a rat brain cDNA library and sequence verified. hM1, rM2, rM3, hM4, and rM4 cDNAs were used to stably transfect CHO-K1 cells purchased from the American Type Culture Collection using Lipofectamine 2000. To make stable rM2, hM2, rM3, hM4, and rM4 cell lines for use in calcium mobilization assays, these cells also were stably transfected with a chimeric G-protein (Gqi5) (provided by B. R. Conklin, University of California, San Francisco) using Lipofectamine 2000. rM1, hM1, rM3, hM3, rM5, and hM5 cells were grown in Ham's F-12 medium containing 10% heat-inactivated fetal bovine serum (FBS), 20 mM HEPES, and 50 μg/mL G418 sulfate. rM2-Gqi5, hM2-Gqi5, and hM4-Gqi5 cells were grown in the same medium also containing 500 μg/mL Hygromycin B. Stable rM4-Gqi5 cells were grown in DMEM containing 10% heat-inactivated FBS, 20 mM HEPES, 400 μg/mL G418 sulfate, and 500 μg/mL Hygromycin B.
For high throughput measurement of agonist-evoked increases in intracellular calcium, CHO-K1 cells stably expressing muscarinic receptors were plated in growth medium lacking G418 and hygromycin at 15,000 cells/20 μL/well in Greiner 384-well black-walled, tissue culture (TC)-treated, clear-bottom plates (VWR). Cells were incubated overnight at 37° C. and 5% CO2. The next day, cells were washed using an ELX 405 (BioTek) with four washes (80 μL) of assay buffer then aspirated to 20 μL. Next, 20 μL of 16 μM Fluo-4/acetoxymethyl ester (Invitrogen, Carlsbad, Calif.) prepared as a 2.3 mM stock in DMSO and mixed in a 1:1 ratio with 10% (w/v) Pluronic F-127 and diluted in assay buffer was added to the wells and the cell plates were incubated for 50 min at 37° C. and 5% CO2. Dye was removed by washing with the ELX 405 (four 80 μL washes of assay buffer) then aspirated to 20 μL. Compound master plates were formatted in an 11 point CRC format (1:3 dilutions) in 100% DMSO with a starting concentration of 10 mM using the BRAVO liquid handler (Agilent). Test compound CRCs were then transferred to daughter plates (240 nL) using the Echo acoustic plate reformatter (Labcyte, Sunnyvale, Calif.) and then diluted into assay buffer (40 μL) to a 2× stock using a Thermo Fisher Combi (Thermo Fisher Scientific, Waltham, Mass.).
Calcium flux was measured using the Functional Drug Screening System (FDSS) 6000 (Hamamatsu Corporation, Tokyo, Japan) as an increase in the fluorescent static ratio. Compounds were applied to cells (20 μL, 2×) using the automated system of the FDSS 6000 at 4 s into the 300 s protocol and the data were collected at 1 Hz. At 144 s into the 300s protocol, 10 μL of an EC20 concentration of the muscarinic receptor agonist acetylcholine was added (5×), followed by the addition of 12 μL an EC80 concentration of acetylcholine at the 230 s time point (5×). Agonist activity was analyzed as a concentration-dependent increase in calcium mobilization upon compound addition. Emax values for agonist activity are expressed relative to the maximum for acetylcholine. Positive allosteric modulator activity was analyzed as a concentration-dependent increase in the EC20 acetylcholine response. Antagonist activity was analyzed as a concentration-dependent decrease in the EC80 acetylcholine response. Concentration-response curves were generated using a four-parameter logistical equation in XLfit curve fitting software (IDBS, Bridgewater, N.J.) for Excel (Microsoft, Redmond, Wash.) or Prism (GraphPad Software, Inc., San Diego, Calif.). […]

| SMILES | EC50 [nM] | Emax [%] |
| --- | --- | --- |
| Cn1ccc(-c2ccc(Cc3cc(C(=O)N[C@H]4CCCC[C@@H]4O)c4nccn4c3)cn2)n1 [compound 25, N-[(1S,2S)-2-hydroxycyclohexyl]-6-[[6-(1-methylpyrazol-3-yl)-3-pyridyl]methyl]imidazo[1,2-a]pyridine-8-carboxamide] | 904 | 83 |
| Cn1cc(-c2cc(F)c(Cc3cc(C(=O)N[C@H]4CCCC[C@@H]4O)c4nccn4c3)c(F)c2)cn1 [compound 40, 6-[[2,6-difluoro-4-(1-methylpyrazol-4-yl)phenyl]methyl]-N-[(1S,2S)-2-hydroxycyclohexyl]imidazo[1,2-a]pyridine-8-carboxamide] | 751 | 58 |
| Cn1ccc(-c2ccc(Cc3cc(C(=O)N[C@H]4CCC[C@@H]4O)c4nccn4c3)c(F)c2)n1 [compound 59, 6-[[2-fluoro-4-(1-methylpyrazol-3-yl)phenyl]methyl]-N-[(1S,2S)-2-hydroxycyclopentyl]imidazo[1,2-a]pyridine-8-carboxamide] | 1200 | 79 |
| Cn1ccc(-c2ccc(Cc3cc(C(=O)N[C@H]4CCOC[C@@H]4O)c4ncnn4c3)cn2)n1 [compound 27, N-[(3R,4S)-3-hydroxytetrahydropyran-4-yl]-6-[[6-(1-methylpyrazol-3-yl)-3-pyridyl]methyl]-[1,2,4]triazolo[1,5-a]pyridine-8-carboxamide] | 7980 | 78 |
| Cn1ccc(-c2ccc(Cc3cc(C(=O)NC4CCOCC4)c4nccn4c3)cc2)n1 [compound 1, 6-[[4-(1-methylpyrazol-3-yl)phenyl]methyl]-N-tetrahydropyran-4-yl-imidazo[1,2-a]pyridine-8-carboxamide] | 6340 | 68 |
| O=C(N[C@H]1CCC[C@@H]1O)c1cc(Cc2ccc(-n3cccn3)cc2)cn2ccnc12 [compound 24, N-[(1S,2S)-2-hydroxycyclopentyl]-6-[(4-pyrazol-1-ylphenyl)methyl]imidazo[1,2-a]pyridine-8-carboxamide] | 2140 | 76 |
| O=C(N[C@H]1CCCC[C@@H]1O)c1cc(Cc2ccc(-n3cccn3)cc2)cc2ncnn12 [compound 20, N-[(1S,2S)-2-hydroxycyclohexyl]-7-[(4-pyrazol-1-ylphenyl)methyl]-[1,2,4]triazolo[1,5-a]pyridine-5-carboxamide] | 1190 | 82 |
| Cn1ccc(-c2ccc(Cc3cc(C(=O)N[C@H]4CCOC[C@@H]4O)c4ncnn4c3)cc2)n1 [compound 6, N-[(3R,4S)-3-hydroxytetrahydropyran-4-yl]-6-[[4-(1-methylpyrazol-3-yl)phenyl]methyl]-[1,2,4]triazolo[1,5-a]pyridine-8-carboxamide] | 790 | 85 |
| Cn1cc(-c2ccc(Cc3cc(C(=O)NC4CCOCC4)c4ncnn4c3)cc2)cn1 [compound 34, 6-[[4-(1-methylpyrazol-4-yl)phenyl]methyl]-N-tetrahydropyran-4-yl-[1,2,4]triazolo[1,5-a]pyridine-8-carboxamide] | 3690 | 35 |
| Cn1cc(-c2ccc(Cc3cc(C(=O)N[C@H]4CCC[C@@H]4O)c4nccn4c3)c(F)c2)cn1 [compound 58, 6-[[2-fluoro-4-(1-methylpyrazol-4-yl)phenyl]methyl]-N-[(1S,2S)-2-hydroxycyclopentyl]imidazo[1,2-a]pyridine-8-carboxamide] | 991 | 84 |
| Cn1ccc(-c2ccc(Cc3cc(C(=O)N[C@H]4CCCC[C@@H]4O)c4ncnn4c3)c(F)c2)n1 [compound 46, 6-[[2-fluoro-4-(1-methylpyrazol-3-yl)phenyl]methyl]-N-[(1S,2S)-2-hydroxycyclohexyl]-[1,2,4]triazolo[1,5-a]pyridine-8-carboxamide] | 742 | 79 |
| Cn1ccc(-c2ccc(Cc3cc(C(=O)N[C@@H]4CC[C@H]4O)c4ncnn4c3)cc2)n1 [compound 10, N-[(1R,2R)-2-hydroxycyclobutyl]-6-[[4-(1-methylpyrazol-3-yl)phenyl]methyl]-[1,2,4]triazolo[1,5-a]pyridine-8-carboxamide] | 4070 | 74 |

Molecules with a lower EC50, results first:

| EC50 [nM] | Emax [%] | SMILES |
| --- | --- | --- |
| 610 | 84 | O=C(N[C@H]1CCCC[C@@H]1O)c1cc(Cc2ccc(-n3cccn3)cc2)cn2ccnc12 [compound 22, N-[(1S,2S)-2-hydroxycyclohexyl]-6-[(4-pyrazol-1-ylphenyl)methyl]imidazo[1,2-a]pyridine-8-carboxamide] |
| 387 | 82 | Cn1cc(-c2cc(F)c(Cc3cc(C(=O)N[C@H]4CCCC[C@@H]4O)c4ncnn4c3)c(F)c2)cn1 [compound 44, 6-[[2,6-difluoro-4-(1-methylpyrazol-4-yl)phenyl]methyl]-N-[(1S,2S)-2-hydroxycyclohexyl]-[1,2,4]triazolo[1,5-a]pyridine-8-carboxamide] |
| 483 | 86 | Cn1ccc(-c2ccc(Cc3cc(C(=O)N[C@H]4CCCC[C@@H]4O)c4ncnn4c3)cc2)n1 [compound 7, N-[(1S,2S)-2-hydroxycyclohexyl]-6-[[4-(1-methylpyrazol-3-yl)phenyl]methyl]-[1,2,4]triazolo[1,5-a]pyridine-8-carboxamide] |
| 414 | 70 | Cn1ccc(-c2ccc(Cc3cc(C(=O)N[C@H]4CCCC[C@@H]4O)c4nccn4c3)c(F)c2)n1 [compound 52, 6-[[2-fluoro-4-(1-methylpyrazol-3-yl)phenyl]methyl]-N-[(1S,2S)-2-hydroxycyclohexyl]imidazo[1,2-a]pyridine-8-carboxamide] |
| 24.6 | 53 | Cc1c(Cc2ccc(-c3ccn(C)n3)cc2)cc(C(=O)N[C@H]2CCOC[C@@H]2O)c2nccn12 [compound 50, N-[(3R,4S)-3-hydroxytetrahydropyran-4-yl]-5-methyl-6-[[4-(1-methylpyrazol-3-yl)phenyl]methyl]imidazo[1,2-a]pyridine-8-carboxamide] |
| 699 | 89 | Cn1cc(-c2ccc(Cc3cc(C(=O)N[C@H]4CCCC[C@@H]4O)c4nccn4c3)cc2)cn1 [compound 62, N-[(1S,2S)-2-hydroxycyclohexyl]-6-[[4-(1-methylpyrazol-4-yl)phenyl]methyl]imidazo[1,2-a]pyridine-8-carboxamide] |
| 123 | 65 | Cn1cc(-c2ccc(Cc3cc(C(=O)N[C@H]4CCOC[C@@H]4O)c4nccn4c3)c(F)c2)cn1 [compound 55, 6-[[2-fluoro-4-(1-methylpyrazol-4-yl)phenyl]methyl]-N-[(3R,4S)-3-hydroxytetrahydropyran-4-yl]imidazo[1,2-a]pyridine-8-carboxamide] |
